Data on two compounds can be found in patent publication US10526322B2, “Inhibitors of kidney-type glutaminase, GLS-1” (CORNELL UNIVERSITY, priority 2014, dated 2020).

This assay has as its target T1, GAC (Mus musculus, UniProt D3Z7P3).
T1 construct: (residues 72-603) was cloned into a pET23a vector; His-tag with thrombin cleavage site (N, cleaved yes); made in house
T1 sequence (D3Z7P3 72-603 isoform D3Z7P3-2): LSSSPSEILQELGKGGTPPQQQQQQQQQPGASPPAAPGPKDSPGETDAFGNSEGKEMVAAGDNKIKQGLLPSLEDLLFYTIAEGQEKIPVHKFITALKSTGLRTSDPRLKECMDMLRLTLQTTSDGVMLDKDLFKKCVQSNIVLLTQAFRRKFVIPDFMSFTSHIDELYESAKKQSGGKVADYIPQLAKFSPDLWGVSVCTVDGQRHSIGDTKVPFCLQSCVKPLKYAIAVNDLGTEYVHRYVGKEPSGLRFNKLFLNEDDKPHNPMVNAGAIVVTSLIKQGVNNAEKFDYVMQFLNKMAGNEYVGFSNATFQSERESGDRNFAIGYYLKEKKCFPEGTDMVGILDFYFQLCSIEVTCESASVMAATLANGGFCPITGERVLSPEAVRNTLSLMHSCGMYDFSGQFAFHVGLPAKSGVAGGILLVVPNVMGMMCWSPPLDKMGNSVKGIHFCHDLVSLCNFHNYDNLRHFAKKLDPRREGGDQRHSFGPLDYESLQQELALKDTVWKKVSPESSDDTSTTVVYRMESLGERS
Briefly: Real-time GAC enzyme activity assay coupled to glutamate dehydrogenase (NADH fluorescence). The assay is classed as biochemical. As to the method: A plasmid encoding the mouse kidney-type glutaminase isoform 2 (GAC, GenBank Accession No. NP_001106854.1, which is hereby incorporated by reference in its entirety) (residues 72-603) was cloned into a pET23a vector containing an N-terminal histidine (His)-tag and thrombin cleavage site. The expressed protein was purified using Co^2+ affinity beads (Clontech), followed by His-tag cleavage with human thrombin (Haemetologic Technologies) overnight at 4° C., and subsequently purified by anion exchange (GE healthcare) and gel filtration chromatography. Purified GAC was stored in a high salt-containing buffer (20 mM Tris-HCl pH 8.5, 500 mM NaCl, 1 mM NaN3) at −80° C., following snap freezing in liquid N2 for long term use. Labeling recombinant GAC with small molecule probes was performed by exchanging 1.5 mg of enzyme into 50 mM HEPES, pH 7.2, and 100 mM NaCl (labeling buffer), using a PD10 desalting column (GE healthcare). The enzyme was then incubated with 50 μM (5-fold excess of enzyme) of either AlexaFluor 488 succinimidyl ester or QSY9 succinimidyl ester (Molecular Probes) for 1 hour at 4° C. After 1 hour, the labeling reaction was quenched with 150 mM Tris-HCl, pH 8.5, and unreacted probe was separated from labeled-enzyme using a PD10 desalting column, eluting labeled-GAC back into the high salt-containing buffer. The stoichiometry of labeling was determined using the probe manufacturer's reported molar absorptivity values and instructions. Briefly, the concentration of GAC was determined by first correcting absorbance at 280 nm (Abs280) for each probe, using the reported correction values (0.11 for AlexaFluor 488 and 0.23 for QSY-9) and their absorbance values at their absorbance maxima (495 nm and 562 nm, respectively). The corrected Abs280 was used along with the experimentally determined molar absorptivity of GAC (ε280=38,850 M−1 cm−1). AlexaFluor 488 and QSY-9 probes were quantified using their respective absorbance maxima and the manufacturer's reported molar absorptivity values (ε495=71,000 M−1 cm−1 and ε562=85,000 M−1 cm−1).
Real-time fluorescence monitoring of 968 binding and GAC activity through production of NADH was performed on a Varian Cary Eclipse Fluorometer, whereas small molecule inhibition and binding titrations were performed in a 96-well format in a Tecan Saphire absorbance and fluorescence plate reader. Samples for monitoring real-time binding of 968 to 488-GAC were prepared by adding 10 μL of varying concentrations of 968 prepared in DMSO to an equilibrated 1 mL sample of 10 nM 488-GAC, while observing 488 fluorescence (490 nm excitation/520 nm emission). Similarly, this method was replicated for monitoring real-time binding of 968 to mutant forms of GAC, namely 488-labeled GAC (GD391K) and 488-GAC (D391K, K316E, R459E). Real-time activity assays monitoring 968 binding and NADH production were prepared in 1 mL samples, where 10 units of glutamate dehydrogenase (Sigma) and 2 mM NAD+ (Sigma) were prepared in 50 mM Tris-Acetate, pH 8.5, 0.1 mM EDTA and equilibrated at 20° C. WT GAC (10 nM) was added and allowed to equilibrate 2 minutes before monitoring the fluorescence emission of 488-GAC (490 nm excitation, 520 nm emission) and NADH (340 nm excitation, 490 nm emission). Appropriate dilutions of 968 or BPTES prepared in DMSO were introduced after 30 seconds and allowed to equilibrate for 2 minutes before a 180 μL solution of K2HPO4 and glutamine was added to make a final concentration of 50 mM K2HPO4 and 20 mM glutamine, to initiate GAC activation. The activity of GAC was measured in a coupled assay, by monitoring the NADH produced by glutamate dehydrogenase, which converts the product of the glutaminase-catalyzed reaction, glutamate, to α-ketoglutarate and ammonia by reducing NAD+ to NADH. […]

As for `CN(C)c1ccc(C2Nc3ccc4ccccc4c3C3=C2C(=O)CC(C)(C)C3)cc1Br` (centres unmarked) [Compound 968], the “inhibition of enzyme activity” value (GAC pre-incubated with 968 before adding phosphate) is given as “strongly inhibited”.

Regarding `CC1(C)CC(=O)C2=C(C1)c1c(ccc3cc4ccccc4cc13)NC2c1ccc(N=[N+]=[N-])cc1` (centres unmarked) [SU-22], the “concentration inhibiting the GAC isoform compared with parent compound 968” value (in vitro inhibition, FIG. 9 / FIG. 11) was “lower concentration than the parent compound, 968”.
